{"source": "patent US20160264593A1", "about": "(priority 2013, published 2016)", "key": {"PP2A [1]": {"tested_on": "PP2A", "experiment": "PP2A activity in mouse livers after IP dosing (PP2A immunoprecipitation phosphatase assay, malachite green)", "type": "in vivo, Balb/c mice", "method": "(§1) Coomassie (Bradford) Protein Assay Kit (Pierce); PP2A Immunoprecipitation Phosphatase Assay Kit (Millipore); Lysate preparation for low endogenous phosphate: 20 mM imidazole-HCl, 2 mM EDTA, 2 mM EGTA, 1 mM PMSF, 1 mM benzamidine, 10 ug/ml each of aprotinin, leupeptin, antipain, soybean trypsin inhibitor; Normal Mouse IgG (Millipore); Okadaic acid (OA) (Tocris); DMSO (Sigma).\n(§2) • Species: Mus Musculus • Strain: Balb/c mice • Age: 6-8 weeks • Sex: female • Body weight: 18-22 g • Vendor: Shanghai Laboratory Animal Center, Shanghai, China; • Number of animals: 66 Balb/c mice plus spare\n(§3) The mice were kept in laminar flow rooms at constant temperature and humidity with 4 animals in each cage. • Temperature: 20-25 • Humidity: 40-70%. • Light cycle: 12 hours light and 12 hours dark. • Cages: Made of polycarbonate. The size is 29 cm×17.5 cm×12 cm (L×w×H). The bedding material is wood debris, which is changed once per week. • Diet: Animals had free access to irradiation sterilized dry granule food during the entire study period. • Water: Animals had free access to sterile drinking water. • Cage identification: the identification labels for each cage contained the following information: number of animals, sex, strain, date arrival, treatment, study number, group number, and the starting date of the treatment. • Animal identification: Animals were marked by ear punch.\n(§4) All the procedures related to animal handling, care, and the treatment in this study were performed according to guidelines approved by the Institutional Animal Care and Use Committee (IACUC) of WuXi AppTec (Shanghai), following the guidance of the Association for Assessment and Accreditation of Laboratory Animal Care (AAALAC). At the time of routine monitoring, the animals were checked and recorded for any effects of tumor growth on normal behavior such as mobility, food and water consumption (by looking only), body weight gain/loss, eye/hair matting and any other abnormal effect.\n(§5) 1. Proper amount of the compounds were weighed. 2. The compounds were dissolved in 4% sterile sodium bicarbonate. 3. All of the compounds should be well dissolved and clear. 4. The compounds should be kept cold once in solution and injected within an hour. 5. The mice were administered intraperitoneally according to their body weights, 20 g mouse was treated with 0.2 ml compound solution. 6. Mice were treated with vehicle and compounds according to Table 1. 7. 3 hours after the dose, 3 mice from each group were euthanized by\n(§6) CO2 exposure, and the brains and left lobe of livers were taken and snap-frozen in liquid nitrogen immediately. 6 hours after the dose, the other 3 mice from each group were euthanized by CO2 exposure, and the brains and left lobe of livers were taken and snap-frozen in liquid nitrogen immediately.\n(§7) Preparation of malachite green phosphate detection solution Added […] of Solution B to each 1 mL of Solution A, kept at room temperature during use. […] of mixed solution AB is used per assay well.\n(§8) Diluted 125 mL Phosphate Standard (Solution C) with 1125 mL of distilled water to make 0.1 mM working solution. The solution was used to prepare a phosphate standard curve as described in the table below.\n(§9) 1. 25 μL of each phosphate standards was transferred to wells of microliter plate. 2. Added 100 μL of Malachite Green Solution AB. Mixed carefully without creating bubbles. 3. Cultured for 15 minutes at RT. 4. Measured absorbance at a wavelength between 650 nm in a microliter plate reader.\n(§10) 1. Dissolved 1 mg Threonine Phosphopeptide (Catalog #12-219) in 1.10 mL of distilled water to prepare a 1 mM solution. 2. Aliquot peptide solution and stored at ˜20° C. as necessary.\n(§11) 1. Mouse brain or liver was homogenized using lysis buffer (25 g/L), centrifuged at 12000 g for 10 minutes at […], and the supernatants were collected. 2. The protein was quantitated, and 240 μg of mouse brain or liver lysate was taken to assay phosphatase activity. 3. […]"}, "PP2A [2]": {"tested_on": "PP2A", "experiment": "PP2A activity in mouse brains after IP dosing (PP2A immunoprecipitation phosphatase assay, malachite green)", "type": "in vivo, Balb/c mice", "details": "for Average Conc. (group of 3 mice) / Average Relative Activity (group, vehicle = 100) / Conc. (phosphate, single reading, per mouse) / Mean Conc. (per mouse) / Mean Conc. less IgG blank (per mouse) / Relative Conc. (per mouse, to vehicle) / Relative PP2A Activity (per mouse, vehicle = 100): brain; for activity of PP2A in brains (statement): high dose IP", "method": "as §1, §2, §3, §4, §5, §6, §7, §8, §9, §10, §11"}, "[3]": {"tested_on": "glioblastoma (U-87) cells", "experiment": "WST cell viability assay, U-87 MG", "type": "cell-based", "details": "Homo sapiens, U-87 MG"}, "lung cancer (A549) cells": {"tested_on": "lung cancer (A549) cells", "experiment": "WST cell viability assay, A549", "type": "cell-based", "details": "Homo sapiens, A549, read-out: IC50 A549"}, "[4]": {"tested_on": "breast cancer (2LMP) cells", "experiment": "WST cell viability assay, 2LMP", "text": "IC50 values were obtained for cytotoxicity against breast cancer (2LMP), glioblastoma (U-87) and lung cancer (A549) cells (See Table 5 and FIGS. 3-5)."}, "[5]": {"details": "IP, dose and time not specified"}, "[6]": {"details": "low dose IP (mpk: 100 0.75, 113 1.1, 151 0.8, 153 0.85, 157 1.0), 3 h, liver"}, "[7]": {"details": "low dose IP (mpk: 100 0.75, 113 1.1, 151 0.8, 153 0.85, 157 1.0), 6 h, liver"}, "[8]": {"details": "high dose IP (mpk: 100 1.5, 113 2.2, 151 1.6, 153 1.7, 157 2.0), 3 h"}, "[9]": {"details": "high dose IP (mpk: 100 1.5, 113 2.2, 151 1.6, 153 1.7, 157 2.0), 6 h"}, "[10]": {"details": "low dose IP (mpk: 100 0.75, 113 1.1, 151 0.8, 153 0.85, 157 1.0), 3 h"}, "[11]": {"details": "low dose IP (mpk: 100 0.75, 113 1.1, 151 0.8, 153 0.85, 157 1.0), 6 h"}}, "note": "Several values for one entry are separate records, joined by “and”; a condition that tells them apart may be missing. Equal entries are not always repeated. Entries after “also recorded” stand apart in the source; their conditions may differ. Where two headings read alike, the source gives them in different places.", "data": [{"smiles": "CCCOC(=O)C1C2CCC(O2)C1C(=O)N1CCN(C)CC1", "note": "(stereo not shown) [Compound 153, 3-(4-Methylpiperazine-1-carbonyl)-7-oxa-bicyclo[2,2,1]heptane-2-carboxylic acid propyl ester]", "values": [{"measurement": "PP2A activity in the liver of mice (statement)", "setting": "PP2A [1]; [5]", "result": "inhibited PP2A activity"}, {"measurement": "activity of PP2A in livers as compared with vehicle (statement)", "setting": "PP2A [1]; high dose IP, 6 h post treatment", "result": "significantly inhibited"}, {"measurement": "Average Conc. (group of 3 mice)", "setting": "PP2A [1]; [6]", "result": 387.63}, {"measurement": "Average Relative Activity (group, vehicle = 100)", "setting": "PP2A [1]; [6]", "result": 92.3}, {"measurement": "Conc. (phosphate, single reading, per mouse)", "setting": "PP2A [1]; [6]", "result": "445.88 and 461.99 and 441.96 and 438.48 and 396.24 and 414.09"}, {"measurement": "Mean Conc. (per mouse)", "setting": "PP2A [1]; [6]", "result": "453.94 and 440.22 and 405.17"}, {"measurement": "Mean Conc. less IgG blank (per mouse)", "setting": "PP2A [1]; [6]", "result": "408.46 and 394.74 and 359.69"}, {"measurement": "Relative Conc. (per mouse, to vehicle)", "setting": "PP2A [1]; [6]", "result": "0.97 and 0.94 and 0.86"}, {"measurement": "Relative PP2A Activity (per mouse, vehicle = 100)", "setting": "PP2A [1]; [6]", "result": "97.26 and 93.99 and 85.65"}, {"measurement": "Average Conc. (group of 3 mice)", "setting": "PP2A [1]; [7]", "result": 364.7}, {"measurement": "Average Relative Activity (group, vehicle = 100)", "setting": "PP2A [1]; [7]", "result": 82.05}, {"measurement": "PP2A activity in the brain of mice (statement)", "setting": "PP2A [2]; [5]", "result": "inhibited PP2A activity"}, {"measurement": "Average Conc. (group of 3 mice)", "setting": "PP2A [2]; [8]", "result": 1620.00}, {"measurement": "Average Relative Activity (group, vehicle = 100)", "setting": "PP2A [2]; [8]", "result": 65.73}, {"measurement": "Conc. (phosphate, single reading, per mouse)", "setting": "PP2A [2]; [8]", "result": "2278.33 and 2174.47 and 1309.82 and 1252.91 and 1475.88 and 1456.77"}, {"measurement": "Mean Conc. (per mouse)", "setting": "PP2A [2]; [8]", "result": "2226.40 and 1281.36 and 1466.33"}, {"measurement": "Mean Conc. less IgG blank (per mouse)", "setting": "PP2A [2]; [8]", "result": "2188.37 and 1243.34 and 1428.30"}, {"measurement": "Relative Conc. (per mouse, to vehicle)", "setting": "PP2A [2]; [8]", "result": "1.01 and 0.57 and 0.66"}, {"measurement": "Relative PP2A Activity (per mouse, vehicle = 100)", "setting": "PP2A [2]; [8]", "result": "88.79 and 50.45 and 57.95"}, {"measurement": "Average Conc. (group of 3 mice)", "setting": "PP2A [2]; [9]", "result": 1696.22}, {"measurement": "Average Relative Activity (group, vehicle = 100)", "setting": "PP2A [2]; [9]", "result": 61.07}, {"measurement": "Conc. (phosphate, single reading, per mouse)", "setting": "PP2A [2]; [9]", "result": "1822.84 and 1778.73 and 1685.64 and 1802.51 and 1690.72 and 1625.07"}, {"measurement": "Mean Conc. (per mouse)", "setting": "PP2A [2]; [9]", "result": "1800.78 and 1744.07 and 1657.89"}, {"measurement": "Mean Conc. less IgG blank (per mouse)", "setting": "PP2A [2]; [9]", "result": "1762.76 and 1706.05 and 1619.87"}, {"measurement": "Relative Conc. (per mouse, to vehicle)", "setting": "PP2A [2]; [9]", "result": "0.72 and 0.70 and 0.66"}, {"measurement": "Relative PP2A Activity (per mouse, vehicle = 100)", "setting": "PP2A [2]; [9]", "result": "63.47 and 61.43 and 58.32"}, {"measurement": "activity of PP2A in brains (statement)", "setting": "PP2A [2]; 3 h", "result": "more effectively than compound 100"}, {"measurement": "activity of PP2A in brains (statement)", "setting": "PP2A [2]; 6 h", "result": "significantly inhibited; also recorded: more effectively than compound 100"}, {"measurement": "PP2A activity in brains as compared with vehicle", "setting": "PP2A [2]; high doses IP, 6 h post treatment", "result": 61, "unit": "%"}, {"measurement": "Average Conc. (group of 3 mice)", "setting": "PP2A [2]; [10]", "result": 2159.78}, {"measurement": "Average Relative Activity (group, vehicle = 100)", "setting": "PP2A [2]; [10]", "result": 87.63}, {"measurement": "Conc. (phosphate, single reading, per mouse)", "setting": "PP2A [2]; [10]", "result": "2670.21 and 2571.02 and 1916.94 and 1817.15 and 2140.93 and 2070.60"}, {"measurement": "Mean Conc. (per mouse)", "setting": "PP2A [2]; [10]", "result": "2620.61 and 1867.04 and 2105.77"}, {"measurement": "Mean Conc. less IgG blank (per mouse)", "setting": "PP2A [2]; [10]", "result": "2582.58 and 1829.02 and 2067.74"}, {"measurement": "Relative Conc. (per mouse, to vehicle)", "setting": "PP2A [2]; [10]", "result": "1.19 and 0.84 and 0.95"}, {"measurement": "Relative PP2A Activity (per mouse, vehicle = 100)", "setting": "PP2A [2]; [10]", "result": "104.78 and 74.21 and 83.90"}, {"measurement": "Average Conc. (group of 3 mice)", "setting": "PP2A [2]; [11]", "result": 2104.97}, {"measurement": "Average Relative Activity (group, vehicle = 100)", "setting": "PP2A [2]; [11]", "result": 75.79}, {"measurement": "Conc. (phosphate, single reading, per mouse)", "setting": "PP2A [2]; [11]", "result": "1969.99 and 2070.60 and 2070.20 and 2078.94 and 2387.89 and 2280.36"}, {"measurement": "Mean Conc. (per mouse)", "setting": "PP2A [2]; [11]", "result": "2020.30 and 2074.57 and 2334.12"}, {"measurement": "Mean Conc. less IgG blank (per mouse)", "setting": "PP2A [2]; [11]", "result": "1982.27 and 2036.54 and 2296.10"}, {"measurement": "Relative Conc. (per mouse, to vehicle)", "setting": "PP2A [2]; [11]", "result": "0.81 and 0.83 and 0.94"}, {"measurement": "Relative PP2A Activity (per mouse, vehicle = 100)", "setting": "PP2A [2]; [11]", "result": "71.37 and 73.33 and 82.67"}, {"measurement": "IC50", "setting": "[3]; read-out: IC50 U-87 MG, WST-20131017 (first value of the cell)", "result": "> 100", "unit": "µM"}, {"measurement": "IC50", "setting": "[3]; read-out: IC50 U-87 MG, WST-20131024 (second value of the cell)", "result": "> 100", "unit": "µM"}, {"measurement": "IC50", "setting": "lung cancer (A549) cells", "result": "> 100", "unit": "µM"}, {"measurement": "cytotoxicity against breast cancer cells (statement)", "setting": "[4]; WST, 2LMP", "result": "cytotoxic"}, {"measurement": "IC50", "setting": "[4]; read-out: IC50 2LMP, WST-20131015 (first value of the cell)", "result": 69.1, "unit": "µM"}, {"measurement": "IC50", "setting": "[4]; read-out: IC50 2LMP, WST-20131025 (second value of the cell)", "result": 62, "unit": "µM"}]}]}
